In article PMC8491704, “Pharmacokinetic study of Tangwang Mingmu granule for the management of diabetic retinopathy based on network pharmacology” (Pharmaceutical Biology, 2021):
Like-named read-outs stand apart in the source and are kept apart here.

Tests used:
[1] = Pharmacokinetic study in SD rats after oral administration of TWMM (UPLC-QQQ-MS of plasma); type: in vivo, Sprague-Dawley (SD) rats; conditions: oral TWMM 9.6 g/kg; for AUC(0-t): n = 6, read-out: AUC (0–36); for Cmax: n = 6, read-out: Cmax; for MRT last: n = 6, read-out: MRT (0–36); for MRT inf: n = 6, read-out: MRT (0–∞); for AUC(0-inf): read-out: areas under the concentration-time curve (AUC0–∞)
Description: Chromatographic separation was performed using an ACQUITY UPLC H-Class system equipped with a 1.8 μm HSS T3 analytical column (100 mm × 2.1 i.d., Waters Corporation, Milford, USA). […] ESI source was set to negative ionisation mode while the analysis was performed using multiple reaction monitorin. Ion spray voltage (3000 V), capillary temperature (450 °C), and the source parameters of the nine compounds are shown in Table 2.
The data obtained from the UPLC/Q-Orbitrap MS was imported into Xcalibur 4.0 software for analysis. Furthermore, the constituents acquired using GCMS-QP 2010 were profiled by comparison using the National Institute of Standards and Technology (NIST) database. The pharmacokinetic data were processed through MassLynx 4.1, and DAS 2.0 software was used to calculate the pharmacokinetic parameters according to the compartment model.
Six male SD rats (average weight: 220 ± 10 g) were acquired from Beijing Vital-River Laboratory Animal Technology Co., Ltd. All rats were acclimatized to an environmentally controlled laboratory for a week. Following this period, the rats were exposed to fasting conditions for 12 h but were allowed free access to water before the experiment. The rats were orally administered TWMM at a dose of 9.6 g/kg. Blood samples (300 µL) were collected into heparinized centrifuge tubes from the fossa orbitalis at pre-dose and 0.03, 0.08, 0.17, 0.25, 0.5, 1, 2, 4, 8, 12, 24, and 36 h intervals. The samples were immediately centrifuged at 6000 g for 10 min at 4 °C and the supernatants were transferred to clean centrifuge tubes.
Each 100 µL plasma sample was mixed with 20 µL of methanol, 20 µL of IS (5 µg/mL), and 600 µL acetonitrile. The mixtures were centrifuged at 15,000 g for 10 min at 4 °C after being vortexed for 3 min. The obtained supernatants were transferred to clean 1.5 mL centrifuge tubes, followed by evaporation under a milt nitrogen stream. Next, the obtained residues were individually redissolved in 100 µL of methanol and centrifuged at 15,000 g for 10 min at 4 °C after vortexed for 3 min. Lastly, 10 µL of individual supernatant was injected for analysis.

[2] = Stability of QC samples of 8 compounds in rat plasma (25 °C 4 h, autosampler 12 h, three freeze-thaw cycles, −80 °C 7 d); type: in vitro ADME; conditions: rat, plasma; for Stability in rat plasma, Long term (7 day, –80 °C), Measured: 168 h
Description: The calibration curves were assessed at eight concentration levels using the correlation coefficient (r). The lower limit of quantification (LLOQ) could fulfil the analytical requirements and achieved reliable accuracy and precision with a signal-to-noise ratio (S/N) ≥ 10. To determine intra- and inter-day precision and accuracy, six replicate quality control (QC) samples at three concentrations were prepared. Inter- and intra-day precision was evaluated by determining relative standard deviation (RSD) values, while accuracy was expressed in terms of the relative error (RE). The extraction recoveries were determined using three concentration levels and calculated by comparing the peak area of extracted samples with post-extracted spiked samples. Subsequently, matrix effects were assessed using the peak area of post-extracted spiked samples contrasted with QC samples at the three concentration levels. The stability test of QC samples at the three concentration levels was as follows: storage at 25 °C for 4 h, storage in an autosampler for 12 h, freeze-thaw cycle for three times, and storage at −80 °C for 7 d.
The stability tests were carried out under three freeze-thaw cycles, at 25 °C for 4 h, in an autosampler for 12 h, and at −80 °C for 7 d.

HUVEC cells = test: Assay of intracellular reactive oxygen species (ROS), DCFH-DA, high glucose; type: cell-based, human; conditions: luteolin 20, 10, 5 µM or formononetin 40, 20, 10 µM for 2 h, then high glucose 24 h
Description: The generation of ROS was detected using dichloro-dihydro-fluorescein diacetate (DCFH-DA, reactive oxygen species assay kit, Solarbio, Beijing) as per manufacturer instructions. In this study, we seeded HUVEC cells in a 96-well plate at 7 × 10^3 per well. […] DCF fluorescence was assessed at F488/525 nm by using a bioassay multi-detection fluorescent plate reader (Tecan Spark, Switzerland).

[3] = set-up: method as in Guan et al. 2014; Cheruvu et al. 2018; Jia et al. 2020; conditions: in different herbal extracts and prescriptions; ref Guan et al. 2014; Cheruvu et al. 2018; Jia et al. 2020; cited from earlier work
[4] = male, Sprague-Dawley, rat, n = 6
[5] = male, Sprague-Dawley, rat, po, 9.6 g/kg, n = 6, read-out: Tmax

| SMILES | half-life [1, 4] | AUC(0-t) ([1]; male, Sprague-Dawley, rat) | Cmax ([1]; male, Sprague-Dawley, rat) | MRT last ([1]; male, Sprague-Dawley, rat) | MRT inf ([1]; male, Sprague-Dawley, rat) | AUC(0-inf) ([1]; male, Sprague-Dawley, rat) | Tmax ([1]; n = 6) | Tmax [1, 5] | Stability in rat plasma, Three freeze/thaw cycles, Measured ([2]; 1 ng/mL) | Stability in rat plasma, Three freeze/thaw cycles, Measured ([2]; 10 ng/mL) | Stability in rat plasma, Three freeze/thaw cycles, Measured ([2]; 200 ng/mL) | Stability in rat plasma, Room temperature (4 h, 25 °C), Measured ([2]; 1 ng/mL) | Stability in rat plasma, Room temperature (4 h, 25 °C), Measured ([2]; 10 ng/mL) | Stability in rat plasma, Room temperature (4 h, 25 °C), Measured ([2]; 200 ng/mL) | Stability in rat plasma, Autosampler (12 h, 4 °C), Measured ([2]; 1 ng/mL) | Stability in rat plasma, Autosampler (12 h, 4 °C), Measured ([2]; 10 ng/mL) | Stability in rat plasma, Autosampler (12 h, 4 °C), Measured ([2]; 200 ng/mL) | Stability in rat plasma, Long term (7 day, –80 °C), Measured ([2]; 1 ng/mL) | Stability in rat plasma, Long term (7 day, –80 °C), Measured ([2]; 10 ng/mL) | Stability in rat plasma, Long term (7 day, –80 °C), Measured ([2]; 200 ng/mL) | further results |
| --- | --- | --- | --- | --- | --- | --- | --- | --- | --- | --- | --- | --- | --- | --- | --- | --- | --- | --- | --- | --- | --- |
| C[C@@H]1O[C@@H](O[C@@H]2[C@@H](O)[C@H](OCCc3ccc(O)c(O)c3)O[C@H](CO)[C@H]2OC(=O)/C=C/c2ccc(O)c(O)c2)[C@H](O)[C@H](O)[C@H]1O [Verbascoside] | 2.08 ± 0.38 h | 175 ± 40.8 ng·h/mL | 45.5 ± 21.2 ng/mL | 8.9 ± 3.44 h | 8.91 ± 3.44 h | 175 ± 40.8 ng·h/mL | 0.25 ± 0.14 h |  |  |  |  |  |  |  |  |  |  |  |  |  | Tmax ([1]; n = 6, listed as verbascoside): ≤ 1 h; t1/2 ([1]; n = 6, listed as verbascoside): rapid elimination; Stability in rat plasma, Three freeze/thaw cycles, Measured ([2]; 2 ng/mL): 2.0 ± 0.1 ng/mL; Stability in rat plasma, Three freeze/thaw cycles, Measured ([2]; 20 ng/mL): 21.8 ± 1.9 ng/mL; Stability in rat plasma, Three freeze/thaw cycles, Measured ([2]; 400 ng/mL): 416.4 ± 17.6 ng/mL; Stability in rat plasma, Room temperature (4 h, 25 °C), Measured ([2]; 2 ng/mL): 2.2 ± 0.1 ng/mL; Stability in rat plasma, Room temperature (4 h, 25 °C), Measured ([2]; 20 ng/mL): 19.6 ± 1.0 ng/mL; Stability in rat plasma, Room temperature (4 h, 25 °C), Measured ([2]; 400 ng/mL): 427.6 ± 13.8 ng/mL; Stability in rat plasma, Autosampler (12 h, 4 °C), Measured ([2]; 2 ng/mL): 2.1 ± 0.2 ng/mL; Stability in rat plasma, Autosampler (12 h, 4 °C), Measured ([2]; 20 ng/mL): 23.8 ± 1.8 ng/mL; Stability in rat plasma, Autosampler (12 h, 4 °C), Measured ([2]; 400 ng/mL): 402.4 ± 19.1 ng/mL; Stability in rat plasma, Long term (7 day, –80 °C), Measured ([2]; 2 ng/mL): 1.9 ± 0.2 ng/mL; Stability in rat plasma, Long term (7 day, –80 °C), Measured ([2]; 20 ng/mL): 21.3 ± 1.8 ng/mL; Stability in rat plasma, Long term (7 day, –80 °C), Measured ([2]; 400 ng/mL): 430.0 ± 6.2 ng/mL |
| O=c1cc(-c2ccc(O)c(O)c2)oc2cc(O)cc(O)c12 [Luteolin] | 11.1 ± 10.2 h | 38.5 ± 7.61 ng·h/mL | 3.27 ± 0.78 ng/mL | 11.4 ± 1.23 h | 18.2 ± 9.14 h | 44 ± 4.19 ng·h/mL |  | 1.71 ± 1.79 h | 1.1 ± 0.1 ng/mL | 11.4 ± 0.8 ng/mL | 218.0 ± 9.9 ng/mL | 1.2 ± 0.1 ng/mL | 11.3 ± 0.3 ng/mL | 217.9 ± 11.7 ng/mL | 1.1 ± 0.1 ng/mL | 10.0 ± 0.2 ng/mL | 205.6 ± 0.9 ng/mL | 1.0 ± 0.1 ng/mL | 10.4 ± 0.6 ng/mL | 221.9 ± 6.8 ng/mL | ROS generation induced by HG (HUVEC cells): could alleviate the symptom of DR; Tmax [3]: 0.50 to 2.83 h; t1/2 [3]: 3.63 to 12.10 h |
| C/C=C1/[C@H](O[C@@H]2O[C@H](CO)[C@@H](O)[C@H](O)[C@H]2O)OC=C(C(=O)OC)[C@H]1CC(=O)OCCc1ccc(O)c(O)c1 [Oleuropein] | 3.36 h | 1.03 ± 0.75 ng·h/mL | 0.9 ± 0.82 ng/mL | 1.53 ± 1.25 h | 1.54 ± 1.25 h | 1.03 ± 0.75 ng·h/mL |  | 1.37 ± 1.6 h |  |  |  |  |  |  |  |  |  |  |  |  | t1/2 ([1]; n = 6): rapid elimination; Stability in rat plasma, Three freeze/thaw cycles, Measured ([2]; 0.5 ng/mL): 0.5 ± 0.1 ng/mL; Stability in rat plasma, Three freeze/thaw cycles, Measured ([2]; 5 ng/mL): 5.1 ± 0.2 ng/mL; Stability in rat plasma, Three freeze/thaw cycles, Measured ([2]; 100 ng/mL): 103.6 ± 9.3 ng/mL; Stability in rat plasma, Room temperature (4 h, 25 °C), Measured ([2]; 0.5 ng/mL): 0.5 ± 0.1 ng/mL; Stability in rat plasma, Room temperature (4 h, 25 °C), Measured ([2]; 5 ng/mL): 4.3 ± 0.5 ng/mL; Stability in rat plasma, Room temperature (4 h, 25 °C), Measured ([2]; 100 ng/mL): 108.6 ± 7.8 ng/mL; Stability in rat plasma, Autosampler (12 h, 4 °C), Measured ([2]; 0.5 ng/mL): 0.4 ± 0.1 ng/mL; Stability in rat plasma, Autosampler (12 h, 4 °C), Measured ([2]; 5 ng/mL): 0.5 ± 0.0 ng/mL; Stability in rat plasma, Autosampler (12 h, 4 °C), Measured ([2]; 100 ng/mL): 93.4 ± 8.6 ng/mL; Stability in rat plasma, Long term (7 day, –80 °C), Measured ([2]; 0.5 ng/mL): 1.0 ± 0.0 ng/mL; Stability in rat plasma, Long term (7 day, –80 °C), Measured ([2]; 5 ng/mL): 4.9 ± 0.3 ng/mL; Stability in rat plasma, Long term (7 day, –80 °C), Measured ([2]; 100 ng/mL): 113.9 ± 9.9 ng/mL |
| COc1ccc(-c2coc3cc(O)ccc3c2=O)cc1 [Formononetin] | 11.7 ± 2.09 h | 40.8 ± 8.51 ng·h/mL | 6.17 ± 1.65 ng/mL | 10.7 ± 1.17 h | 15.7 ± 1.9 h | 46 ± 7.89 ng·h/mL | 0.46 ± 0.29 h |  | 1.0 ± 0.1 ng/mL | 10.1 ± 1.0 ng/mL | 206.3 ± 21.0 ng/mL | 1.1 ± 0.1 ng/mL | 11.8 ± 0.2 ng/mL | 220.6 ± 3.5 ng/mL | 1.2 ± 0.1 ng/mL | 10.1 ± 0.2 ng/mL | 222.6 ± 3.6 ng/mL | 1.1 ± 0.1 ng/mL | 10.2 ± 0.2 ng/mL | 216.0 ± 4.3 ng/mL | Tmax ([1]; n = 6, listed as formononetin): ≤ 1 h; ROS generation induced by HG (HUVEC cells): could alleviate the symptom of DR |
